# Assay results as given in patent US7964607B2, “Pyrazolo[3,4-d]pyrimidine compounds” (Pfizer Inc., priority 2007, dated 2011).
# Molecular target: T1, human recombinant PDE9 enzyme (Homo sapiens, UniProt O76083)
# T1 construct: made in house; host or cells: SF-9 insect cells
# Assay: Phosphodiesterase 9 (PDE9) inhibitory activity, Scintillation Proximity (SPA) assay
# Format: biochemical
# Conditions: not given
# Procedure: Phosphodiesterase 9 (PDE9) Inhibitory Activity The PDE9 assay was performed using the Phosphodiesterase Scintillation Proximity (SPA) assay (GE Healthcare Life Sciences). […] The human recombinant PDE9 enzyme was generated in SF-9 cells, the cell pellets were sonicated in buffer (20 mM TRIS, 2 mM benzamidine, 1 mM EDTA, 250 mM sucrose, 100 μM PMSF, pH 7.5 with HCl), centrifuged at 40,000×g for 20 min at 4° C. The supernatants were stored at −80° C. […] Test compounds were dissolved in DMSO, diluted in DI H2O and serially diluted in 20% DMSO/80% H2O, for a final concentration of 2% DMSO. For the assay the PDE9 was diluted with assay buffer such that 20% or less of the substrate was hydrolyzed to 5′GMP. Each assay well contained 10 μl of test compound or solvent, 40 μl of [^3H]CGMP and 50 μl of enzyme, background was determined by a high concentration of a PDE inhibitor. The assay was initiated with the addition of the enzyme and carried out at room temperature for 30 min. […] The plates were sealed, vortexed, allowed to set for >300 min, then counted in a Wallac TriLux MicroBeta LSC.
# T1 sequence (O76083 whole entry): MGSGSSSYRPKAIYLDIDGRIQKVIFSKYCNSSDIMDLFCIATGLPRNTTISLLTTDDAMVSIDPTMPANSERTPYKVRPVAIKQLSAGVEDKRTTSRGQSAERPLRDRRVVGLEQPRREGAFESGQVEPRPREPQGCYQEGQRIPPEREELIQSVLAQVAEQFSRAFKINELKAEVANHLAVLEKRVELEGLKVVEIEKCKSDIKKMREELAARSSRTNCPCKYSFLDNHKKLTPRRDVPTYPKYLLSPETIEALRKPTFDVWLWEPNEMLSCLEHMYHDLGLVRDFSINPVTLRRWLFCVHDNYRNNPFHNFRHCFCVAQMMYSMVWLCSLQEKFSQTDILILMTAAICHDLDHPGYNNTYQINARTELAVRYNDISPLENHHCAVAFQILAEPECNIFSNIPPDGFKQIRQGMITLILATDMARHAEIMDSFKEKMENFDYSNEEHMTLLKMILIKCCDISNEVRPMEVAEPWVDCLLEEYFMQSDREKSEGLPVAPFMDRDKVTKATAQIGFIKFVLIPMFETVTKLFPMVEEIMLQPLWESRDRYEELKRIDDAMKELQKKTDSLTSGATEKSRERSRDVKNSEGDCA
row,Compound,IC50
1,"C[C@@H]1CN(Cc2ccccc2)C[C@H]1c1nc2c(cnn2C2CCOCC2)c(=O)[nH]1 (racemic) [Example 60, 6-[(3,4-trans)-1-benzyl-4-methylpyrrolidin-3-yl]-1-(tetrahydro-2H-pyran-4-yl)-1,5-dihydro-4H-pyrazolo[3,4-d]pyrimidin-4-one]",44.8 nM

# Same assay, conditions: human recombinant PDE9 from SF-9 cells; 50 nM [3H]cGMP; room temperature, 30 min; Examples 3-114; read-out: G5678A (U): IC50
row,IC50,Compound
1,53.8 nM,"O=c1[nH]c([C@@H]2CN(Cc3ccccc3)C[C@H]2C(F)(F)F)nc2c1cnn2C1CCCC1 (racemic) [Example 35, 6-[(3,4-trans)-1-benzyl-4-(trifluoromethyl)pyrrolidin-3-yl]-1-cyclopentyl-1,5-dihydro-4H-pyrazolo[3,4-d]pyrimidin-4-one]"
2,58.1 nM,"CC[C@@H]1CN(Cc2ccccc2)C[C@H]1c1nc2c(cnn2C(C)C)c(=O)[nH]1 (racemic) [Example 39, 6-[(3,4-trans)-1-benzyl-4-ethylpyrrolidin-3-yl]-1-isopropyl-1,5-dihydro-4H-pyrazolo[3,4-d]pyrimidin-4-one]"
3,10.9 nM,"CC[C@@H]1CN(Cc2cnc3ccccc3c2)C[C@H]1c1nc2c(cnn2C(C)C)c(=O)[nH]1 (racemic) [Example 44, 6-[(3,4-trans)-4-ethyl-1-(quinolin-3-ylmethyl)pyrrolidin-3-yl]-1-isopropyl-1,5-dihydro-4-H-pyrazolo[3,4-d]pyrimidin-4-one]"
4,38.7 nM,"CC[C@@H]1CN(Cc2ccc(OC)nc2)C[C@H]1c1nc2c(cnn2C(C)C)c(=O)[nH]1 (racemic) [Example 45, 6-{(3,4-trans)-4-ethyl-1-[(6-methoxypyridin-3-yl)methyl]pyrrolidin-3-yl}-1-isopropyl-1,5-dihydro-4H-pyrazolo[3,4-d]pyrimidin-4-one]"
5,8.53 nM,"CC[C@@H]1CN(Cc2ccc3nccnc3c2)C[C@H]1c1nc2c(cnn2C(C)C)c(=O)[nH]1 (racemic) [Example 46, 6-[(3,4-trans)-4-ethyl-1-(quinoxalin-6-ylmethyl)pyrrolidin-3-yl]-1-isopropyl-1,5-dihydro-4H-pyrazolo[3,4-d]pyrimidin-4-one]"
6,26 nM,"O=c1[nH]c([C@@H]2CN(Cc3ccc4nccnc4c3)C[C@H]2C(F)(F)F)nc2c1cnn2C1CCCC1 (racemic) [Example 52, 1-cyclopentyl-6-[(3,4-trans)-1-(quinoxalin-6-ylmethyl)-4-(trifluoromethyl)pyrrolidin-3-yl]-1,5-dihydro-4H-pyrazolo[3,4-d]pyrimidin-4-one]"
7,6.55 nM,"Cc1cnc(CN2C[C@@H](c3nc4c(cnn4C4CCCC4)c(=O)[nH]3)[C@H](C3CC3)C2)cn1 (racemic) [Example 55, 1-cyclopentyl-6-{(3,4-trans)-4-cyclopropyl-1-[(5-methylpyrazin-2-yl)methyl]pyrrolidin-3-yl}-1,5-dihydro-4H-pyrazolo[3,4-d]pyrimidin-4-one]"
8,4.81 nM,"O=c1[nH]c([C@@H]2CN(Cc3ccc4nccnc4c3)C[C@H]2C2CC2)nc2c1cnn2C1CCCC1 (racemic) [Example 56, 1-cyclopentyl-6-[(3,4-trans)-4-cyclopropyl-1-(quinoxalin-6-ylmethyl)pyrrolidin-3-yl]-1,5-dihydro-4H-pyrazolo[3,4-d]pyrimidin-4-one]"
9,122 nM,"CN1C[C@@H](c2nc3c(cnn3C3CCCC3)c(=O)[nH]2)[C@H](C2CC2)C1 (racemic) [Example 57, 1-cyclopentyl-6-[(3,4-trans)-4-cyclopropyl-1-methylpyrrolidin-3-yl]-1,5-dihydro-4H-pyrazolo[3,4-d]pyrimidin-4-one]"
10,334 nM,"CCn1ncc2c(=O)[nH]c([C@@H]3CN(Cc4ccccc4)C[C@H]3C)nc21 (racemic) [Example 58, 6-[(3,4-trans)-1-benzyl-4-methylpyrrolidin-3-yl]-1-ethyl-1,5-dihydro-4H-pyrazolo[3,4-d]pyrimidin-4-one]"
11,520 nM,"O=c1[nH]c([C@@H]2CN(Cc3ccccc3)C[C@H]2CC(F)(F)F)nc2c1cnn2C1CCCC1 (racemic) [Example 62, 6-[(3,4-trans)-1-benzyl-4-(2,2,2-trifluoroethyl)pyrrolidin-3-yl]-1-cyclopentyl-1,5-dihydro-4H-pyrazolo[3,4-d]pyrimidin-4-one]"
